The assay has as its system human neutrophils. Kind of assay: Chemotaxis of neutrophils suspended inside G041 substrate in a gradient. In kind it is cell-based. The note with it: 45-minute video. The text has this: For materials in the Examples 2-4, substrates were punched or cut into shapes, sterilized and used to setup gradients of one or more ingredients. In some tests, gradients were further applied to cells in culture. In other tests, suspension of uncultured cells was suspended inside the substrate to which a gradient was applied.
As shown in Example 9 (Brain Culture #5) cells survived without free (substrate-unbound) medium, if overlapped by another substrate with the embedded medium. Accordingly, molecule diffusion studies, and this included gradients formed in one or more substrates, were maintained for longer periods of time without significant gradient “dilution” (by otherwise present surrounding pool of medium) when applied to cells in culture (or to uncultured cells suspended inside the substrate) by way of a substrate overlap method. In short term studies in a humidified incubator, neutrophils were exposed to a gradient inside the substrate, and the substrate was not overlapped by another substrate, yet a significant fraction of cells taxed in a suitable gradient.

The values below come from patent US9334473B2, “Three dimensional cell culture compositions and methods of use” (priority 2012, dated 2016).

In the case of “Interleukin 8: cytokine applied as a gradient to neutrophils”, the “Chemotaxis in applied gradient” value is “Chemotaxis of human neutrophils”.
